# Laboratory results reported in US7449498B2, “Composite materials for bone defect filling and bone replacement” (Yesbio Co., Ltd., priority 2005, dated 2008).
# Assay: Measurement of exothermic temperature during polymerization
# Assay type: physicochemical
# Conditions: FIG. 3
# Experimental: The composite material was mixed for 30 seconds and injected to a mold having a size in 5 mm of height and 3 mm of radius. Then, the temperature changes was measured in 3 samples per each group by inserting a thermocouple and read with a thermocouple reader (Yocogawa, Japan).
smiles,measurement,value
"C=C(C#N)C(=O)OCCCC [BCA, n-butyl-2-cyanoacrylate]","temperature changes during polymerizing, in words",excessively exothermic
